Paper PMC4335020, “Single Oral Dose Pharmacokinetics of Decursin and Decursinol Angelate in Healthy Adult Men and Women” (PLoS ONE, 2015)

Key:
[1] = design: method as in PMID 23364885; settings: rat n = 3, oral 33.5 mg/kg D and 21.5 mg/kg DA, cited from earlier work; for Cmax: read-out: C max, nmol/, Mean (SD)
[2] = Urinary excretion after single oral dose of Cogni.Q; type: in vivo, human; settings: pooled 0-24 h urine; for number of subjects with analyte detected in urine: of 20 subjects
Description: Plasma was prepared by centrifuging the heparinized blood at 1000 g for 15 minutes at room temperature. Urine samples (40mL) were collected within time spans of 0–4, 4–8, 8–12 and 12–24 hours (total volume of urine was recorded). All plasma and urine samples were put on dry ice immediately and then stored at -80°C freezer until analysis.
Urine samples from each subject collected from 0 to 24 hours post-dose were pooled proportional to the volume of urine in each sampling period. Urine sample (200μL) was spiked with 5 μL of prednisolone solution (10 ng/μL, IS), and extracted with 1500 μL of ethyl acetate. The ethyl acetate fraction was recovered and dried using a SpeedVac. The dried residue was reconstituted in 50 μL of methanol for UHPLC-MS/MS analysis and 5 μL of the sample was injected.
Urine samples from each subject were pooled proportional to the amount of urine in each sampling period (hours 0–4, 4–8, 8–12 and 12–24). DA was detected in its original form in the urine of 14 subjects whereas D was only detected in the urine of 3 subjects. The levels of detectable D and DA ranged from 0.06∼1.74 nmol/L. DOH was detected in the urine of all subjects with a mean concentration of 289 nmol/L. These extractable unmodified pyranocoumarin forms accounted for the 24-hour cumulative excretion of less than 1% of the ingested pyranocoumarins. Further work is needed to estimate the extent of additional metabolites (free and conjugated forms) in urine and plasma.

CC(C)=CC(=O)O[C@H]1Cc2cc3ccc(=O)oc3cc2OC1(C)C [D, decursin]
AUC0–48h, h nmol/L, Mean (SD) [1]: 36.0 (14.3) h nmol/L | T max, h, median (range) [1]: 1 (0.5–2) h | Cmax [1]: 7.3 nM | number of subjects with analyte detected in urine [2]: 3 subjects

C/C=C(/C)C(=O)O[C@H]1Cc2cc3ccc(=O)oc3cc2OC1(C)C [DA, decursinol angelate]
AUC0–48h, h nmol/L, Mean (SD) [1]: 64.3 (8.8) h nmol/L | T max, h, median (range) [1]: 1 (0.5–2) h | Cmax [1]: 7.3 nM | number of subjects with analyte detected in urine [2]: 14 subjects

CC1(C)Oc2cc3oc(=O)ccc3cc2C[C@@H]1O [DOH, decursinol]
AUC0–48h, h nmol/L, Mean (SD) [1]: 81272 (6829) h nmol/L | T max, h, median (range) [1]: 4 (3–8) h | Cmax [1]: 5640 nM | number of subjects with analyte detected in urine [2]: all subjects | urine mean concentration ([2]; all subjects): 289 nmol/L
